Values of other authors in US10937641B2, “MALDI mass spectrometry method” (BiosparQ B.V., priority 2017, dated 2021).
In brackets after ≈: the same amount, converted by molar mass.

Settings: solubility defined at room temperature as intrinsic solubility

For `N#CC(=Cc1ccc(O)cc1)C(=O)O` [αCHCA, α-cyano-4-hydroxycinnamic acid], the solubility in water is listed as 6000 µg/mL (≈ 31.7 mM).
